According to the NIST ThermoML archive (doi:10.1021/je900503p):

How the values were obtained:
[1] = xn = mol fraction of the nth substance listed; conditions: 101 kPa, Liquid
[2] = relative permittivity at zero frequency (dimensionless); xn = mol fraction of the nth substance listed; conditions: 101 kPa, Liquid, Dekameter
[3] = refractive index (Na D-line) (dimensionless); xn = mol fraction of the nth substance listed; conditions: 101 kPa, Liquid

O=C1CCCO1 [γ-butyrolactone] + CCCCO
Conditions | mass density [kg/m3] | refractive index | relative permittivity at zero frequency
[1], 293.15 K, x1 = 0.0786 | 831.12 | – | –
[1], 293.15 K, x1 = 0.1555 | 852.82 | – | –
[1], 293.15 K, x1 = 0.2466 | 879.28 | – | –
[1], 293.15 K, x1 = 0.2901 | 892.18 | – | –
[1], 293.15 K, x1 = 0.3664 | 915.23 | – | –
[1], 293.15 K, x1 = 0.4332 | 935.89 | – | –
[1], 293.15 K, x1 = 0.4988 | 956.54 | – | –
[1], 293.15 K, x1 = 0.5616 | 976.71 | – | –
[1], 293.15 K, x1 = 0.6336 | 1000.34 | – | –
[1], 293.15 K, x1 = 0.7033 | 1023.73 | – | –
[1], 293.15 K, x1 = 0.7956 | 1055.39 | – | –
[1], 293.15 K, x1 = 0.8654 | 1080.09 | – | –
[1], 293.15 K, x1 = 0.9334 | 1104.36 | – | –
[1], 293.15 K, x1 = 0.9888 | 1124.69 | – | –
[1], 298.15 K, x1 = 0.0786 | 827.22 | – | –
[1], 298.15 K, x1 = 0.1555 | 848.94 | – | –
[1], 298.15 K, x1 = 0.2466 | 875.32 | – | –
[1], 298.15 K, x1 = 0.2901 | 888.19 | – | –
[1], 298.15 K, x1 = 0.3664 | 911.2 | – | –
[1], 298.15 K, x1 = 0.4332 | 931.77 | – | –
[1], 298.15 K, x1 = 0.4988 | 952.35 | – | –
[1], 298.15 K, x1 = 0.5616 | 972.46 | – | –
[1], 298.15 K, x1 = 0.6336 | 996.03 | – | –
[1], 298.15 K, x1 = 0.7033 | 1019.35 | – | –
[1], 298.15 K, x1 = 0.7956 | 1050.92 | – | –
[1], 298.15 K, x1 = 0.8654 | 1075.34 | – | –
[1], 298.15 K, x1 = 0.9334 | 1099.62 | – | –
[1], 298.15 K, x1 = 0.9888 | 1119.77 | – | –
[1], 303.15 K, x1 = 0.0786 | 823.57 | – | –
[1], 303.15 K, x1 = 0.1555 | 845.28 | – | –
[1], 303.15 K, x1 = 0.2466 | 871.63 | – | –
[1], 303.15 K, x1 = 0.2901 | 884.43 | – | –
[1], 303.15 K, x1 = 0.3664 | 907.36 | – | –
[1], 303.15 K, x1 = 0.4332 | 927.87 | – | –
[1], 303.15 K, x1 = 0.4988 | 948.38 | – | –
[1], 303.15 K, x1 = 0.5616 | 968.43 | – | –
[1], 303.15 K, x1 = 0.6336 | 991.92 | – | –
[1], 303.15 K, x1 = 0.7033 | 1015.09 | – | –
[1], 303.15 K, x1 = 0.7956 | 1046.55 | – | –
[1], 303.15 K, x1 = 0.8654 | 1070.81 | – | –
[1], 303.15 K, x1 = 0.9334 | 1094.88 | – | –
[1], 303.15 K, x1 = 0.9888 | 1114.92 | – | –
[1], 313.15 K, x1 = 0.0786 | 816.82 | – | –
[1], 313.15 K, x1 = 0.1555 | 839.3 | – | –
[1], 313.15 K, x1 = 0.2466 | 866.62 | – | –
[1], 313.15 K, x1 = 0.2901 | 879.94 | – | –
[1], 313.15 K, x1 = 0.3664 | 903.64 | – | –
[1], 313.15 K, x1 = 0.4332 | 924.87 | – | –
[1], 313.15 K, x1 = 0.4988 | 946.17 | – | –
[1], 313.15 K, x1 = 0.5616 | 966.89 | – | –
[1], 313.15 K, x1 = 0.6336 | 991.1 | – | –
[1], 313.15 K, x1 = 0.7033 | 1015.08 | – | –
[1], 313.15 K, x1 = 0.7956 | 1047.44 | – | –
[1], 313.15 K, x1 = 0.8654 | 1072.54 | – | –
[1], 313.15 K, x1 = 0.9334 | 1097.32 | – | –
[1], 313.15 K, x1 = 0.9888 | 1118.1 | – | –
[2], 293.15 K, x1 = 0.1098 | – | – | 20.68
[2], 293.15 K, x1 = 0.2154 | – | – | 22.37
[2], 293.15 K, x1 = 0.3009 | – | – | 23.98
[2], 293.15 K, x1 = 0.4127 | – | – | 26.17
[2], 293.15 K, x1 = 0.5088 | – | – | 28.44
[2], 293.15 K, x1 = 0.6124 | – | – | 31.29
[2], 293.15 K, x1 = 0.7001 | – | – | 33.79
[2], 293.15 K, x1 = 0.8133 | – | – | 37.12
[2], 293.15 K, x1 = 0.9078 | – | – | 40.02
[2], 298.15 K, x1 = 0.1098 | – | – | 19.61
[2], 298.15 K, x1 = 0.2154 | – | – | 21.23
[2], 298.15 K, x1 = 0.3009 | – | – | 22.55
[2], 298.15 K, x1 = 0.4127 | – | – | 24.92
[2], 298.15 K, x1 = 0.5088 | – | – | 27.23
[2], 298.15 K, x1 = 0.6124 | – | – | 29.79
[2], 298.15 K, x1 = 0.7001 | – | – | 32.21
[2], 298.15 K, x1 = 0.8133 | – | – | 36.01
[2], 298.15 K, x1 = 0.9078 | – | – | 39.13
[2], 303.15 K, x1 = 0.1098 | – | – | 18.57
[2], 303.15 K, x1 = 0.2154 | – | – | 19.99
[2], 303.15 K, x1 = 0.3009 | – | – | 21.61
[2], 303.15 K, x1 = 0.4127 | – | – | 23.88
[2], 303.15 K, x1 = 0.5088 | – | – | 26.16
[2], 303.15 K, x1 = 0.6124 | – | – | 28.82
[2], 303.15 K, x1 = 0.7001 | – | – | 31.34
[2], 303.15 K, x1 = 0.8133 | – | – | 35.03
[2], 303.15 K, x1 = 0.9078 | – | – | 38.46
[2], 313.15 K, x1 = 0.1098 | – | – | 16.65
[2], 313.15 K, x1 = 0.2154 | – | – | 18.16
[2], 313.15 K, x1 = 0.3009 | – | – | 19.99
[2], 313.15 K, x1 = 0.4127 | – | – | 22.01
[2], 313.15 K, x1 = 0.5088 | – | – | 24.43
[2], 313.15 K, x1 = 0.6124 | – | – | 26.76
[2], 313.15 K, x1 = 0.7001 | – | – | 29.25
[2], 313.15 K, x1 = 0.8133 | – | – | 33.05
[2], 313.15 K, x1 = 0.9078 | – | – | 36.56
[3], 293.15 K, x1 = 0.1098 | – | 1.4026 | –
[3], 293.15 K, x1 = 0.2154 | – | 1.4063 | –
[3], 293.15 K, x1 = 0.3009 | – | 1.4096 | –
[3], 293.15 K, x1 = 0.4127 | – | 1.4136 | –
[3], 293.15 K, x1 = 0.5088 | – | 1.4172 | –
[3], 293.15 K, x1 = 0.6124 | – | 1.4213 | –
[3], 293.15 K, x1 = 0.7001 | – | 1.4247 | –
[3], 293.15 K, x1 = 0.8133 | – | 1.4294 | –
[3], 293.15 K, x1 = 0.9078 | – | 1.4332 | –
[3], 298.15 K, x1 = 0.1098 | – | 1.4014 | –
[3], 298.15 K, x1 = 0.2154 | – | 1.4051 | –
[3], 298.15 K, x1 = 0.3009 | – | 1.4083 | –
[3], 298.15 K, x1 = 0.4127 | – | 1.4124 | –
[3], 298.15 K, x1 = 0.5088 | – | 1.416 | –
[3], 298.15 K, x1 = 0.6124 | – | 1.42 | –
[3], 298.15 K, x1 = 0.7001 | – | 1.4234 | –
[3], 298.15 K, x1 = 0.8133 | – | 1.4279 | –
[3], 298.15 K, x1 = 0.9078 | – | 1.4316 | –
[3], 303.15 K, x1 = 0.1098 | – | 1.4 | –
[3], 303.15 K, x1 = 0.2154 | – | 1.4038 | –
[3], 303.15 K, x1 = 0.3009 | – | 1.407 | –
[3], 303.15 K, x1 = 0.4127 | – | 1.4111 | –
[3], 303.15 K, x1 = 0.5088 | – | 1.4147 | –
[3], 303.15 K, x1 = 0.6124 | – | 1.4186 | –
[3], 303.15 K, x1 = 0.7001 | – | 1.4219 | –
[3], 303.15 K, x1 = 0.8133 | – | 1.4263 | –
[3], 303.15 K, x1 = 0.9078 | – | 1.43 | –
[3], 313.15 K, x1 = 0.1098 | – | 1.3973 | –
[3], 313.15 K, x1 = 0.2154 | – | 1.4013 | –
[3], 313.15 K, x1 = 0.3009 | – | 1.4044 | –
[3], 313.15 K, x1 = 0.4127 | – | 1.4085 | –
[3], 313.15 K, x1 = 0.5088 | – | 1.4121 | –
[3], 313.15 K, x1 = 0.6124 | – | 1.4158 | –
[3], 313.15 K, x1 = 0.7001 | – | 1.4192 | –
[3], 313.15 K, x1 = 0.8133 | – | 1.4232 | –
[3], 313.15 K, x1 = 0.9078 | – | 1.4267 | –
